The source of these data is US5780441A, “Sphingoglycolipid compounds and therapeutic uses thereof” (Kirin Beer Kabushiki Kaisha, priority 1993, dated 1998).

For series [1], the system named is P388 mouse leukemia cells. Nature of the series: Life-span-prolonging (anti-tumor) effect on mice subcutaneously inoculated with P388 mouse leukemia cells. In kind it is in vivo, mouse (CDF1 female). As to conditions: for Survival days ave. ± s. d. / response vs control in vivo at 0.1 mg/kg: 0.1 mg/kg i.v. on days 1, 5 and 9; for Survival days ave. ± s. d.: all marked ** (p < 0.01); for response vs control in vivo at 0.1 mg/kg: Mus musculus, P388, iv, survival vs vehicle, read-out: T/C (%); for life-span-prolonging effect (anti-tumor effect), in words: P388 s.c. system. The procedure, abridged: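 CDF1 female mice (6 weeks), 5 per group, inoculated subcutaneously with P388 leukemia cells; life-span prolongation assessed. Lentinan and picibanil given intravenously on days 1, 3, 5, 7 and 9 after implantation; sizofilan given subcutaneously on days 1 through 9. Statistics by Mann-Whitney test.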

Series [2] relates to mixed lymphocyte culture reaction (spleen cells of C57BL/6 and BALB/C mice). Nature of the series: Mixed lymphocyte culture reaction (MLR). Type of series: cell-based, mouse (C57BL/6 stimulator, BALB/C responder). Conditions: Mus musculus, Lymphocyte, 42 hours, read-out: MLR activating rate (%); for activity at 1 µg/mL: 1 × 10^0 μg/ml; for activity at 0.1 µg/mL: 1 × 10^-1 μg/ml. An outline of the steps:
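Mouse one-way MLR: mitomycin C-treated (50 μg/ml, 30 min) C57BL/6 spleen cells stimulated BALB/C responder spleen cells, 2×10^6 cells/ml each, cultured 42 h at 37 °C with sample. ³H-thymidine (0.5 μCi/well) incorporation over a further 8 h gave MLR activating rate as % of vehicle uptake.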

For another series, the system named is mouse splenic lymphocyte. The experiment in a line: In vitro mouse splenic lymphocyte-proliferation-stimulating effect (3H-TdR uptake). Type of series: cell-based, mouse (BDF1 female). Conditions: Mus musculus, Splenic lymphocyte, 48 h, 2 days, read-out: Uptake of 3H-TdR (% of control), splenic lymphocytes; for activity at 1 µg/mL: 10^0 μg/ml. The procedure, abridged: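 Spleen cells from 6-week-old female BDF1 mice, 2×10^6 cells/ml in 10% FCS RPMI 1640, cultured with vehicle or sample 2 days at 37° C, 5% CO2. ^3H-TdR (0.5 μCi/well) uptake over 6 h by scintillation counting, expressed as % of vehicle.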

Series [3] in a line: Solubility in water in aqueous Polysorbate 20 solutions. Type of series: physicochemical. As to conditions: for amount of Polysorbate 20 required for dissolving, relative to that required for Compound b: vs Compound b. On the procedure: Compounds a and b comprising a monosaccharide as a constituent sugar which are disclosed in WO 93/05055 were synthesized as above. A 1 mg of each of the present compounds 4, 31 and 33 and Compound a and b was dissolved in 1 ml of an aqueous Polysorbate 20 solution in a variety of concentrations in order to observe visually the property.

A further series relates to mouse bone marrow cells. The experiment in a line: In vitro mouse bone marrow cell-proliferation-promoting effect (3H-TdR uptake). In kind it is cell-based, mouse (BDF1 female). Conditions: Mus musculus, Bone marrow cell, 96 h, 4 days, read-out: Uptake of 3H-TdR (% of control), bone marrow cells; for activity at 0.1 µg/mL: 10^-1 μg/ml; for activity at 0.01 µg/mL: 10^-2 μg/ml. The procedure, abridged: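 Femoral bone marrow monocytes from 6-week female BDF1 mice (Lympholite M fraction, 1×10^6 cells/ml in 10% FCS RPMI 1640) cultured with sample for 4 days at 37 °C, 5% CO2. 3H-TdR (0.5 μCi/well) added for final 6 h; uptake ratio versus vehicle reported as activation rate.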

The test system of series [4] is mouse splenic lymphocytes. Nature of the series: Influence of Polysorbate on immunostimulating effect (3H-TdR uptake into mouse splenic lymphocytes). In kind it is cell-based, mouse (BDF1 female). As to conditions: for 3H-TdR uptake in words, compound with Polysorbate 20: 10 μg/ml (0.1% Polysorbate 20) and 1 μg/ml (0.01%) vs 0.1 μg/ml (0.001%); for 3H-TdR uptake: mean of 3 wells. As for the experimental part:
Experiment was performed with BDF1 female mice (6 weeks old) purchased from NIPPON SLC K.K. Spleens were removed from mice, and spleen cells were brayed with slide glasses and hemolized with NH4 Cl. 2×10^6cells/ml of the spleen cells which had been hemolized were suspended in 10% FCS RPMI 1640. The cell suspension (100 μl/well) and a vehicle or sample (10 μl/well) which was prepared so as to have a final level shown in Table 3 were added into wells of a round-bottomed 96 well plate, and cultured under the condition of 5% CO2 at 37° C. for 2 days. 0.5 μCi/well of ^3 H-thymidine (^3 H-TdR) was added. After 6 hours, the cells were harvested, and the amount of ^3 H-TdR uptaken into nucleus was measured by a liquid scintillation counter. The ratio (%) of the uptake of ^3 H-TdR in the sample group to that in the vehicle group was calculated and used as the in vitro mouse splenic lymphocyte-proliferation-stimulating rate.
A sample of a solution of 1 mg of Compound 33 prepared in Experimental Example 8 in 1 ml of 10% or 0.1% Polysorbate 20, a sample of a solution of 1 mg of Compound b in 1 ml of 10% Polysorbate 20, or 10% and 0.1% Polysorbate 20, were prepared by subjecting to aseptic filtration followed by sequential 10 time dilution with PBS as shown in Table 5 in order to carry out the experiment described in Experimental Example 6.
In this connection, 1 mg of Compound b was insoluble in 0.1% Polysorbate, and thus no experiment was conducted.

Where [5] appears, read: 10% PS20 stock (compound 1 mg/ml), dilution 10^2.
The mark [6] stands for this setting: 10% PS20 stock (compound 1 mg/ml), dilution 10^3.
The mark [7] stands for this setting: 10% PS20 stock (compound 1 mg/ml), dilution 10^4.
Setting [8] is: 10% PS20 stock (compound 1 mg/ml), dilution 10^5.

In the case of `CCCCCCCCCCCCCCCCCCCCCCCCCC(=O)N[C@@H](CO[C@H]1O[C@H](CO[C@H]2O[C@H](CO)[C@H](O)[C@H](O)[C@H]2O)[C@@H](O)[C@H](O)[C@H]1O)[C@H](O)[C@H](O)CCCCCCCCCCCCCC` [Compound 31, O-α-D-galactopyranosyl-(1→6)-O-α-D-glucopyranosyl-(1→1)-(2S,3S,4R)-2-amino-N-hexacosanoyl-1,3,4-octadecanetriol], in series [1], the “Survival days ave. ± s. d.” value stood at 14.6 ± 0.5 days; the response vs control in vivo at 0.1 mg/kg is 114%; the “life-span-prolonging effect (anti-tumor effect), in words” value is on record as “intensive anti-tumor effects almost in the same level as that of Compound b”. In addition, in series [2], the activity at 1 µg/mL stood at 206% and the activity at 0.1 µg/mL turned out to be 196%. Moreover, the activity at 1 µg/mL with mouse splenic lymphocyte stood at 615%. Further, the activity at 0.001 µg/mL in the series on mouse splenic lymphocyte (10^-3 μg/ml) was determined as 744%. Besides, the “amount of Polysorbate 20 required for dissolving, relative to that required for Compound b” value in series [3] is reported as 1/100. Also, in the series on mouse bone marrow cells, the activity at 0.1 µg/mL was 296% and the activity at 0.01 µg/mL was 594%.
As for `CCCCCCCCCCCCCCCCCCCCCCCCCC(=O)N[C@@H](CO[C@H]1O[C@H](CO[C@H]2O[C@H](CO)[C@H](O)[C@H](O)[C@H]2O)[C@H](O)[C@H](O)[C@H]1O)[C@H](O)[C@H](O)CCCCCCCCCCCCCC` [Compound 33, O-α-D-galactopyranosyl-(1→6)-O-α-D-galactopyranosyl-(1→1)-(2S,3S,4R)-2-amino-N-hexacosanoyl-1,3,4-octadecanetriol], the “Survival days ave. ± s. d.” value in series [1] was 15.0 ± 0.7 days. The response vs control in vivo at 0.1 mg/kg in series [1] is 117%. Also, the “life-span-prolonging effect (anti-tumor effect), in words” value in series [1] is “intensive anti-tumor effects almost in the same level as that of Compound b”. In series [4] (10 μg/ml (0.001% Polysorbate 20)), the “3H-TdR-uptake-stimulating effect, in words” value is given as “intensive ^3 H-TdR-uptake-stimulating effect”. The “3H-TdR uptake in words, compound with Polysorbate 20” value in series [4] is “suppressed”. Further, the 3H-TdR uptake in series [4] (0.1% PS20 stock (compound 1 mg/ml), dilution 10^2) is listed as 24213 cpm; in series [4] (0.1% PS20 stock (compound 1 mg/ml), dilution 10^3), 23332 cpm; in series [4] (0.1% PS20 stock (compound 1 mg/ml), dilution 10^4), 26249 cpm; in series [4] (0.1% PS20 stock (compound 1 mg/ml), dilution 10^5) it was 23653 cpm; in series [4] (setting [5]), 119 cpm; in series [4] (setting [6]) it was 18447 cpm. In addition, the results for the 3H-TdR uptake in series [4] (setting [7]) and in series [4] (setting [8]) were 24671 cpm and 21677 cpm, respectively. Further, the activity at 1 µg/mL was found to be 302% in series [2] and 954% with mouse splenic lymphocyte. For the same compound, the results for the activity at 0.1 µg/mL (in series [2]; in the series with mouse bone marrow cells) were 251% and 214%, respectively. In series [3], the “amount of Polysorbate 20 required for dissolving, relative to that required for Compound b” value is 1/100. Moreover, in the series with mouse bone marrow cells, the activity at 0.01 µg/mL came out at 763%.
Regarding `CCCCCCCCCCCCCCCCCCCCCCCCCC(=O)N[C@@H](CO[C@H]1O[C@H](CO)[C@H](O)[C@H](O)[C@H]1O)[C@H](O)[C@H](O)CCCCCCCCCCCCCC` [Compound b, (2S,3S,4R)-1-(α-D-galactopyranosyloxy)-2-hexacosanoylamino-3,4-octadecanediol, reference compound], the “Survival days ave. ± s. d.” value in series [1] was found to be 15.6 ± 0.5 days. In series [1], the response vs control in vivo at 0.1 mg/kg came out at 122%. The “3H-TdR uptake in words, compound with Polysorbate 20” value in series [4] is reported as “suppressed”. Besides, the 3H-TdR uptake in series [4] (setting [5]) is recorded as 201 cpm; in series [4] (setting [6]) it was 18300 cpm; in series [4] (setting [7]), 24439 cpm; in series [4] (setting [8]), 25555 cpm. In series [3] (1 mg in 0.1% Polysorbate), the “solubility in Polysorbate, in words” value is listed as “insoluble”. For the same compound, the activity at 0.1 µg/mL in the series with mouse bone marrow cells was found to be 381%. In addition, in the series with mouse bone marrow cells, the activity at 0.01 µg/mL stood at 438%.
